What was measured:
Assay type in all cases: physicochemical
Solvent solubility = conditions: for Solvent solubility, PGMEA / Solvent solubility, Butyl acetate / Solvent solubility, Toluene: 25° C.
Experimental: In a test tube, 0.1 g of the synthesized photoacid generator was placed, and an organic solvent (butyl acetate, toluene or PGMEA) was added thereto in 0.2 g portions under a condition where the temperature was adjusted to 25° C. until the photoacid generator was completely dissolved. In this connection, in the case where the photoacid generator was not completely dissolved even when 20 g of the solvent was added, the photoacid generator was evaluated as one that was not dissolved.

[1] = Molar extinction coefficient at i-line (365 nm), UV-visible spectrophotometer; conditions: 365 nm (i-line), 0.25 mmol/L in acetonitrile, 1 cm cell
Experimental: The synthesized photoacid generator was diluted to 0.25 mmol/L with acetonitrile, and using an ultraviolet-visible spectrophotometer (UV-2550 available from SHIMADZU CORPORATION), the absorbance in a range of 200 nm to 500 nm was measured with a cell having an optical path length (a cell length) of 1 cm. The molar extinction coefficient of i-line (365 nm) (ε365) was calculated from the following equation. ε365(L·mol^−1·cm^−1)=A365/(0.00025 mol/L×1 cm) [In the equation, A365 represents the absorbance at 365 nm.] <Resist Curing Properties>

[2] = Thermal decomposition temperature (TG/DTA, 2% weight reduction); conditions: point of 2% weight reduction, 10° C./minute, nitrogen atmosphere
Experimental: The synthesized photoacid generator was measured for the change in weight under a temperature increasing condition of 10° C./minute from 30° C. to 500° C. under a nitrogen atmosphere using a thermal gravimetric/differential thermal analyzer (TG/DTA 6200, available from Seiko Instruments Inc.), and a point where the weight was reduced by 2% was defined as the thermal decomposition temperature.

SMILES: CN(OS(=O)(=O)CC12CCC(CC1=O)C2(C)C)C(=O)c1ccc2ccccc2c1 (stereo not shown) [A-1]
- Solvent solubility, PGMEA (Solvent solubility): 20 wt %
- Solvent solubility, Butyl acetate (Solvent solubility): 20 wt %
- Solvent solubility, Toluene (Solvent solubility): 12 wt %
- Molar extinction coefficient [1]: 80 L/mol/cm
- Thermal decomposition temperature [2]: 230 °C

SMILES: COc1ccc2cc(C(=O)N(C)OS(=O)(=O)CC34CCC(CC3=O)C4(C)C)ccc2c1 (stereo not shown) [A-2]
- Solvent solubility, PGMEA (Solvent solubility): 15 wt %
- Solvent solubility, Butyl acetate (Solvent solubility): 15 wt %
- Solvent solubility, Toluene (Solvent solubility): 10 wt %
- Molar extinction coefficient [1]: 120 L/mol/cm
- Thermal decomposition temperature [2]: 225 °C

SMILES: COc1cc2c(OC)cccc2cc1C(=O)N(C)OS(=O)(=O)CC12CCC(CC1=O)C2(C)C (stereo not shown) [A-3]
- Solvent solubility, PGMEA (Solvent solubility): 15 wt %
- Solvent solubility, Butyl acetate (Solvent solubility): 15 wt %
- Solvent solubility, Toluene (Solvent solubility): 10 wt %
- Molar extinction coefficient [1]: 360 L/mol/cm
- Thermal decomposition temperature [2]: 225 °C

SMILES: COc1cc2c(OC)cccc2cc1C(=O)N(C)OS(C)(=O)=O [A-4]
- Solvent solubility, PGMEA (Solvent solubility): 20 wt %
- Solvent solubility, Butyl acetate (Solvent solubility): 20 wt %
- Solvent solubility, Toluene (Solvent solubility): 10 wt %
- Molar extinction coefficient [1]: 300 L/mol/cm
- Thermal decomposition temperature [2]: 225 °C

SMILES: COc1cc2c(OC)cccc2cc1C(=O)N(C)OS(=O)(=O)c1c(F)c(F)c(F)c(F)c1F [A-5]
- Solvent solubility, PGMEA (Solvent solubility): 10 wt %
- Solvent solubility, Butyl acetate (Solvent solubility): 10 wt %
- Solvent solubility, Toluene (Solvent solubility): 10 wt %
- Molar extinction coefficient [1]: 400 L/mol/cm
- Thermal decomposition temperature [2]: 225 °C

SMILES: CC(=O)c1ccc(Sc2ccc(C(=O)N(C)OS(=O)(=O)CC34CCC(CC3=O)C4(C)C)cc2)cc1 (stereo not shown) [A-6]
- Solvent solubility, PGMEA (Solvent solubility): 15 wt %
- Solvent solubility, Butyl acetate (Solvent solubility): 15 wt %
- Solvent solubility, Toluene (Solvent solubility): 10 wt %
- Molar extinction coefficient [1]: 450 L/mol/cm
- Thermal decomposition temperature [2]: 210 °C

SMILES: COc1ccc2cc(C(=O)N(C)OS(=O)(=O)CC34CCC(CC3=O)C4(C)C)c(=O)oc2c1 (stereo not shown) [A-7]
- Solvent solubility, PGMEA (Solvent solubility): 15 wt %
- Solvent solubility, Butyl acetate (Solvent solubility): 15 wt %
- Solvent solubility, Toluene (Solvent solubility): 10 wt %
- Molar extinction coefficient [1]: 6500 L/mol/cm
- Thermal decomposition temperature [2]: 220 °C

SMILES: CN(OS(=O)(=O)CC12CCC(CC1=O)C2(C)C)C(=O)c1c2ccccc2cc2ccccc12 (stereo not shown) [A-8]
- Solvent solubility, PGMEA (Solvent solubility): 5 wt %
- Solvent solubility, Butyl acetate (Solvent solubility): 5 wt %
- Solvent solubility, Toluene (Solvent solubility): 10 wt %
- Molar extinction coefficient [1]: 9000 L/mol/cm
- Thermal decomposition temperature [2]: 240 °C

SMILES: CC1(C)C2CCC1(CS(=O)(=O)OC1C(=O)c3cccc4cccc(c34)C1=O)C(=O)C2 (stereo not shown) [A′-1, reference compound]
- Solvent solubility, PGMEA (Solvent solubility): 0.5 wt %
- Solvent solubility, Butyl acetate (Solvent solubility): 1 wt %
- solubility to a solvent (in words) (Solvent solubility; summary of Table 1): insufficient
- Solvent solubility, Toluene (Solvent solubility): 0.5 wt %
- Molar extinction coefficient [1]: 330 L/mol/cm
- Thermal decomposition temperature [2]: 225 °C

From patent US10450266B2, “Sulfonate compound, photoacid generator, and resin composition for photolithography” (SAN-APRO LIMITED, priority 2014, dated 2019)
